Where “and” joins values, the source holds several entries; their conditions need not be identical. Equal entries are not always repeated.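 Growth conditions: 96-well plates. Treatment: test compound, 48 hours, 5 concentrations. Analysis: linear interpolation between bracketing concentrations; unreached endpoints set to highest concentration. GI50 = concentration required for 50% inhibition of growth. TGI marks complete inhibition of growth.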
Experiments:
Assay in all cases: growth of human tumour cells (NCI), 48 h
SR leukemia = tested on: SR leukemia
UO-31 renal = tested on: UO-31 renal
DMS 273 small cell lung = tested on: DMS 273 small cell lung
SF-295 CNS = tested on: SF-295 CNS
HOP-62 NSCLC = tested on: HOP-62 NSCLC
SK-MEL-5 melanoma = tested on: SK-MEL-5 melanoma
SK-OV-3 ovarian = tested on: SK-OV-3 ovarian
MOLT-4 leukemia = tested on: MOLT-4 leukemia
HCT-116 colon = tested on: HCT-116 colon
BT-549 breast = tested on: BT-549 breast

SMILES | TGI (SR leukemia) | TGI (UO-31 renal) | TGI (DMS 273 small cell lung) | TGI (SF-295 CNS) | TGI (HOP-62 NSCLC) | TGI (SK-MEL-5 melanoma) | TGI (SK-OV-3 ovarian) | GI50 (MOLT-4 leukemia) | TGI (MOLT-4 leukemia) | TGI (HCT-116 colon) | TGI (BT-549 breast)
C=C1C(=O)OC2/C=C(\CO)C(OC(C)=O)CC(O)/C(C)=C/C(OC(=O)C(C)CC)C12 (stereo not given) | 39.2 µM | > 100 µM | 38 µM | > 100 µM | > 100 µM | 33 µM and 30.9 µM | > 100 µM | 11 µM and 22.6 µM | 28.2 µM and 64.3 µM | 27.6 µM and 42.5 µM | 36.9 µM
O=[N+]([O-])C(=C(N1CCCCC1)N1CCCCC1)/C(Cl)=C(\Cl)Br | 30.9 µM | > 100 µM |  | > 100 µM | > 100 µM | 46 µM | > 100 µM |  | 57.3 µM | 41.7 µM | > 100 µM
O=c1c2ncn(C3CC(O)C(CO)O3)c2nnn1Cc1ccccc1[N+](=O)[O-] (stereo not given) | 45.4 µM | > 100 µM |  | > 100 µM | > 100 µM | > 100 µM | > 100 µM |  | > 100 µM | > 100 µM | > 100 µM
CCOC1CC(=O)c2c(Br)sc(Br)c21 (stereo not given) | 60.3 µM | 33.5 µM |  | 77.4 µM | 38.2 µM | > 100 µM | 30.4 µM |  | 35.1 µM | 38.4 µM | 66.1 µM
CCCCn1c2c(n(CCCC)c1=S)-c1c(n(CCCC)c(=S)n1CCCC)S[Se][Se]S2 | > 100 µM | 9.02 µM |  | 30.5 µM | 35.1 µM | 19.6 µM | 55.1 µM |  | > 37.2 µM | 16.9 µM | 35.5 µM
O=C(O)[C@@H]1C[C@@H](O)CN1C(=O)OCc1ccccc1 | > 100 µM | > 100 µM |  | > 100 µM | > 100 µM | > 100 µM | > 100 µM |  | > 100 µM | > 100 µM | > 100 µM
CCC(C(=O)O)c1ccc(OCc2ccccc2)cc1 (stereo not given) | > 100 µM | > 100 µM | > 100 µM | > 100 µM | > 100 µM | > 100 µM | > 100 µM |  | > 100 µM | > 100 µM | 
COc1cc2c(cc1OCCCCOc1cc(-c3ccc(F)cc3)nc(C)n1)N=C[C@@H]1CCCN1C2=O | 0.363 µM | 12 µM |  | 2.26 µM | 3.43 µM | 1.44 µM | 16.2 µM |  | 0.279 µM | 8.59 µM | 2.28 µM
CN(C)C(CN)CC1=C(CC(CN)N(C)C)CCC1 (stereo not given) |  | > 100 µM | > 100 µM | > 100 µM | > 100 µM | > 100 µM | > 100 µM |  | > 100 µM | > 100 µM | 
CCOC(=O)C1=C(C(C)=O)CSC(c2ccccc2)=N1 |  | > 100 µM | > 100 µM | > 100 µM |  | > 100 µM | > 100 µM |  | > 100 µM | > 100 µM | 
CSC1CC2C(CC1(C)O)C2(C)C (stereo not given) |  | > 100 µM | > 100 µM |  | > 100 µM | > 100 µM | > 100 µM | > 100 µM | > 100 µM | > 100 µM | 
Cc1nn(C(=O)Cc2ccccc2)c2c1C(c1ccccc1O)SC(N)=N2 (stereo not given) | > 100 µM | > 100 µM |  | > 100 µM | > 100 µM | > 100 µM | > 100 µM |  | > 100 µM | > 100 µM | > 100 µM
Cc1ccccc1OC(C)C(=O)NN1C(=O)CC(=O)N(c2ccc(Cl)cc2)C1=S (stereo not given) | 84.1 µM | > 100 µM |  | > 100 µM | > 100 µM | 74.4 µM | > 100 µM |  | > 100 µM | 53 µM | > 100 µM
CCOC(=O)c1[nH]cc(C)c1-c1ccn(-c2ccccc2)c1 | 72.4 µM | > 100 µM |  | > 100 µM | > 100 µM | 63.9 µM | > 100 µM |  | 65.2 µM | > 100 µM | > 100 µM
CC(C)(C)NC(=O)[C@H]1CC[C@H]2[C@@H]3CC=C4NC(=O)CC[C@]4(C)[C@H]3CC[C@]12C | > 100 µM | > 100 µM |  | > 100 µM | > 100 µM | > 100 µM | > 100 µM |  | > 100 µM | > 100 µM | > 100 µM
O=C(CP(=O)(O)O)c1cccs1 |  | > 100 µM | > 100 µM | > 100 µM | > 100 µM | > 100 µM | > 100 µM |  |  | > 100 µM | 

— PubChem BioAssay (NCI)
